{"source": "paper PMC11532403", "about": "(Signal Transduction and Targeted Therapy, 2024)", "key": {"[1]": {"system": "respiratory system", "test": "Respiratory safety pharmacology", "assay_type": "in vivo, SD rats", "details": "single oral, males 15-40, females 30-80 mg/kg", "experimental": "All rats were evaluated by cage-side observation, detailed clinical observation, body weight and respiratory parameters (tidal volume, minute tidal volume and respiratory rate)."}, "[2]": {"test": "Caco-2 permeability", "assay_type": "in vitro ADME, human"}, "[3]": {"system": "RET phosphorylation in BaF3-CCDC6-RET^WT cells", "test": "RET signaling pathway phosphorylation in cells", "assay_type": "cell-based"}, "[4]": {"system": "SD rats", "test": "28-day repeat-dose toxicity", "assay_type": "in vivo"}, "[5]": {"test": "28-day repeat-dose toxicity", "assay_type": "in vivo", "details": "SD, rat, plasma, po; for AUC(0-t): read-out: AUClast at STD10, day 28; for Cmax: read-out: Cmax at STD10, day 28"}, "[6]": {"target": "T1, RET^WT (Homo sapiens, UniProt P07949)", "T1 construct": "RET (residues 658-1114) was cloned into pFastBac vector containing an N-terminal Glutathione S-transferase (GST) tag; made in house; host or cells: Sf9 insect cells (baculovirus)", "T1 sequence (P07949 658-1114)": "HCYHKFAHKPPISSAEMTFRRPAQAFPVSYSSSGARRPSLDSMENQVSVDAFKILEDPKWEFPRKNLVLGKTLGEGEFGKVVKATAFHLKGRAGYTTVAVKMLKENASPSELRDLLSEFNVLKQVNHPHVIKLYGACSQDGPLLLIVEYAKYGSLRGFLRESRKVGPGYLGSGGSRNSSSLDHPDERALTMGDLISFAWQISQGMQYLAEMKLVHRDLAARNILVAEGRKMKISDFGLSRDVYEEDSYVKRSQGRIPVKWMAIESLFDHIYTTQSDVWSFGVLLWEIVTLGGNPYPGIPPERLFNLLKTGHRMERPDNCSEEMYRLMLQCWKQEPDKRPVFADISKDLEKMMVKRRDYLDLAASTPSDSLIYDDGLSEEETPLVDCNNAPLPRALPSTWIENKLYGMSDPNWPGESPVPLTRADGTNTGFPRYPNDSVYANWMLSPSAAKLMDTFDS", "test": "HTRF kinEASE-TK kinase assay", "details": "ATP at Km; read-out: Biochemical IC50 RET^WT", "experimental": "(§1) RET (residues 658-1114) was cloned into pFastBac vector containing an N-terminal Glutathione S-transferase (GST) tag. Mutagenesis was performed on this vector to generate the RET^V804M single mutant: RETV804MmutF: […]a[…] and RETV804MmutR: […]t[…]; the RET^M918T single mutant: RETM918TmutF: […]c[…] and RETM918TmutR: […]g[…]; the RET^G810S single mutant: RETG810SmutF: […]tc[…] and RETG810SmutR: […]ga[…]. Recombinant baculovirus for expression of GST-RET was generated by co-transfection of Sf9 cells. Plaque-purified viruses were amplified, titrated and used to infect Sf9 cells incubated at 27 °C and 80 rpm. Cells were harvested 72 h post infection for protein purification.\n(§2) Frozen cell pellets (1 liter culture/each) were thawed and resuspended in 20 ml of buffer A (50mM Tris-HCl, pH 7.5, 150mM NaCl, 0.1mM EDTA, 0.5% Triton X-100, 20% glycerol and 1* protease inhibitor [#539134-1SETCN, Merck]) and sonicated. The cell lysates were centrifuged at 20000 rpm for 40 min at 4 °C, then applied to GSH-Sepharose 4 Fast Flow (GE Healthcare) at 4 °C. After washing twice with 10 mL of buffer B (50mM Tris-HCl, pH 7.5, 150mM NaCl, 0.1 mM EDTA, 20% glycerol), the protein was eluted with elution buffer (50mM Tris-HCl, pH 7.5, 150mM NaCl, 0.1mM EDTA, 20% glycerol, 20mM Glutathione, 1 mM DTT) and concentrated using Amicon Ultra-15. Purities of proteins were 90% as determined by SDS-PAGE and Coomassie Blue stain.\n(§3) Kinase activity was detected using CisBio HTRF kinEASE-TK kit. The assay was performed in 384-well white plates (#3574, Corning) in a reaction volume of 10 μL containing a final concentration of 50 mM HEPES, pH 7.5, 0.1 mM Na3VO4,0.01% BSA, 0.001% Tween-20, 5 mM MgCl2, […], 1 mM DTT, 1 μM TK-Substrate-biotin. The reaction was initiated by the addition of ATP at Km and indicated recombinant RET proteins. […] After incubation at 23 °C for 1 hour, FRET signal was measured on an EnVision reader (PerkinElmer Inc.)."}, "[7]": {"target": "T2, RET^M918T (Homo sapiens, UniProt P07949, M918T)", "T2 construct": "RET (residues 658-1114) was cloned into pFastBac vector containing an N-terminal Glutathione S-transferase (GST) tag; made in house; host or cells: Sf9 insect cells (baculovirus)", "T2 sequence (P07949 658-1114 M918T)": "as the sequence (P07949 658-1114) above, with M261T counted along it", "test": "HTRF kinEASE-TK kinase assay", "details": "ATP at Km; read-out: Biochemical IC50 RET^M918T", "experimental": "as §1, §2, §3"}, "[8]": {"target": "T3, RET^G810S (Homo sapiens, UniProt P07949, G810S)", "T3 construct": "RET (residues 658-1114) was cloned into pFastBac vector containing an N-terminal Glutathione S-transferase (GST) tag; made in house; host or cells: Sf9 insect cells (baculovirus)", "T3 sequence (P07949 658-1114 G810S)": "as the sequence (P07949 658-1114) above, with G153S counted along it", "test": "HTRF kinEASE-TK kinase assay", "details": "ATP at Km; read-out: Biochemical IC50 RET^G810S", "experimental": "as §1, §2, §3"}, "[9]": {"system": "Baf3-CCDC6-RET^M918T xenograft", "test": "Tumor xenograft model", "assay_type": "in vivo, BALB/c nude mice", "details": "9 days", "experimental": "(§4) All procedures relating to animal handling, care, and treatment were performed according to the Beijing Laboratory Animal Management Regulations. 6-week-old male BALB/c nude mice were inoculated subcutaneously into the flank with Baf3-CCDC6-RET^WT (5*10^6 cells/ 0.1 mL/ each), Baf3-CCDC6-RET^M918T (5*10^6 cells/0.1 mL/each), Baf3-CCDC6-RET^V804M (5*10^6 cells/ 0.1 mL/ each), or HEK293T-KIF5B-RET^V804M (5*10^6 cells/ 0.1 mL/ each). Mice were randomized by tumor size into groups of 10 to 12 when tumor volume reached approximately 100-150 mm^3. […] Tumor size and body weight were measured two times each week, and tumor volume was calculated with the following formula: [length × (width)^2]/ 2. Statistical significance was calculated by using two-way ANOVA test to assess the difference in tumor volumes between the control (vehicle-treated) and treatment groups."}, "[10]": {"system": "Baf3-CCDC6-RET^V804M xenograft", "test": "Tumor xenograft model", "assay_type": "in vivo, BALB/c nude mice", "details": "9 days", "experimental": "as §4"}, "[11]": {"system": "HEK293T-KIF5B-RET^V804M xenograft", "test": "Tumor xenograft model", "assay_type": "in vivo, BALB/c nude mice", "details": "14 days", "experimental": "as §4"}, "[12]": {"system": "Baf3-CCDC6-RET^WT xenograft", "test": "Tumor xenograft model", "assay_type": "in vivo, BALB/c nude mice", "experimental": "as §4"}, "[13]": {"details": "preclinical SD rat repeated administration"}, "[14]": {"details": "high-dose study, 10 mg/kg (so in the source)"}}, "note": "Where two headings read alike, the source gives them in different places."}
{"smiles": "COc1ccc(CN2C3CC2CN(c2ccc(-c4cc(N5CC(C)(O)C5)cn5ncc(C#N)c45)cn2)C3)cn1", "note": "[SY-5007, 6-(3-hydroxy-3-methylazetidin-1-yl)-4-(6-(6-((6-methoxypyridin-3-yl)methyl)-3,6-diazabicyclo[3.1.1]heptan-3-yl)pyridin-3-yl)pyrazolo[1,5-a]pyridine-3-carbonitrile]", "values": [{"measurement": "Respiratory effects", "setting": "[1]", "result": "nor did it show any effects on the respiratory parameters"}, {"measurement": "Permeability class", "setting": "[2]", "result": "moderately permeable"}, {"measurement": "Concentration at which effect reaches saturation", "setting": "[3]", "result": 10, "unit": "nM"}, {"measurement": "Concentration significantly inhibiting RET phosphorylation", "setting": "[3]", "result": 1, "unit": "nM"}, {"measurement": "STD10", "setting": "[4]; female SD rats, GLP long toxicity study", "result": 60, "unit": "mg/kg"}, {"measurement": "STD10", "setting": "[4]; females, 28 days", "result": 60, "unit": "mg/kg"}, {"measurement": "STD10", "setting": "[4]; male SD rats, GLP long toxicity study", "result": 30, "unit": "mg/kg"}, {"measurement": "STD10", "setting": "[4]; males, 28 days", "result": 30, "unit": "mg/kg"}, {"measurement": "Electrolyte abnormalities (blood PK)", "setting": "[4]; [13]", "result": "? Abnormalities such as blood PK were found in the preclinical SD rat and Beagle repeated administration test of this product, and the relevant regulations were carried out in consideration of the fact that similar mechanism of action drugs have been reported."}, {"measurement": "Plasma protein: TP, ALB, A/G", "setting": "[4]; [13]", "result": "? TP, ALB, A/G were abnormal in the repeated administration test of preclinical SD rats of this product, and considering that drugs with similar mechanisms of action have been reported, relevant provisions are made."}, {"measurement": "TG (hyperlipidemia)", "setting": "[4]; [13]", "result": "? TG is abnormal in the repeated administration test of preclinical SD rats of this product, and considering that drugs with similar mechanisms of action have been reported, relevant provisions are made."}, {"measurement": "Bleeding tendency: gastric mucosa and ileum findings", "setting": "[4]; preclinical SD rats, repeated dosing", "result": "? This drug was found to have gastric mucosal reddening and ileal discolouration in preclinical SD rats and Beagle dogs in repeated dosing tests, so the relevant provisions were made."}, {"measurement": "Kidney: creatinine", "setting": "[4]; repeat dose study in SD rats", "result": "elevated creatinine"}, {"measurement": "AUC(0-t)", "setting": "[5]; female, females 60 mg/kg", "result": 122, "unit": "µg·h/mL"}, {"measurement": "Cmax", "setting": "[5]; female, females 60 mg/kg", "result": 14900, "unit": "ng/mL"}, {"measurement": "AUC(0-t)", "setting": "[5]; male, males 30 mg/kg", "result": 111, "unit": "µg·h/mL"}, {"measurement": "Cmax", "setting": "[5]; male, males 30 mg/kg", "result": 8160, "unit": "ng/mL"}, {"measurement": "IC50", "setting": "[6]", "result": 0.339, "unit": "nM"}, {"measurement": "IC50", "setting": "[7]", "result": 0.84, "unit": "nM"}, {"measurement": "IC50", "setting": "[8]", "result": 2.07, "unit": "nM"}, {"measurement": "TGI", "setting": "[9]; 10 mg/kg oral", "result": 12.4, "unit": "%"}, {"measurement": "TGI", "setting": "[9]; 20 mg/kg oral", "result": 40.9, "unit": "%"}, {"measurement": "TGI", "setting": "[9]; 40 mg/kg oral", "result": 93.0, "unit": "%"}, {"measurement": "TGI", "setting": "[10]; 10 mg/kg oral", "result": 35.4, "unit": "%"}, {"measurement": "TGI", "setting": "[10]; 20 mg/kg oral", "result": 85.3, "unit": "%"}, {"measurement": "TGI", "setting": "[10]; 40 mg/kg oral", "result": 109, "unit": "%"}, {"measurement": "TGI", "setting": "[11]; 10 mg/kg twice daily", "result": 40.7, "unit": "%"}, {"measurement": "TGI", "setting": "[11]; 20 mg/kg twice daily", "result": 70.3, "unit": "%"}, {"measurement": "TGI", "setting": "[11]; 40 mg/kg twice daily", "result": 94.1, "unit": "%"}, {"measurement": "TGI", "setting": "[12]; 3 mg/kg twice daily, 13 days", "result": 59.2, "unit": "%"}, {"measurement": "TGI", "setting": "[12]; 6 mg/kg twice daily, 13 days", "result": 80.1, "unit": "%"}, {"measurement": "TGI", "setting": "[12]; 12 mg/kg twice daily, 13 days", "result": 93.5, "unit": "%"}, {"measurement": "TGI", "setting": "[12]; [14]", "result": 112, "unit": "%"}, {"measurement": "Tumor regression rate (REG)", "setting": "[12]; [14]", "result": 97.3, "unit": "%"}, {"measurement": "TGI", "setting": "[12]; high-dose study, 20 mg/kg", "result": 107, "unit": "%"}, {"measurement": "Tumor regression rate (REG)", "setting": "[12]; high-dose study, 20 mg/kg", "result": 57.7, "unit": "%"}, {"measurement": "Tumor regression rate (REG)", "setting": "[12]; high-dose study, 40 mg/kg (so in the source)", "result": 0, "unit": "%"}]}
